Experimental findings from article PMC9747329 (ACS chemical biology, 2022) are described below.

In general, koff refers to the first-order rate constant of dissociation. The low end stands for a long-lived complex, the high end for a short-lived complex. One may read the kon as a measure of how fast the partners come together. Low readings indicate slow association, high ones fast association. Usually Emax stands for the size of the effect at its maximum, as opposed to the concentration needed.

Test [1] deals with T1, nLuc-PTHR1 (Homo sapiens, UniProt Q03431).
T1 sequence (Q03431 27-593): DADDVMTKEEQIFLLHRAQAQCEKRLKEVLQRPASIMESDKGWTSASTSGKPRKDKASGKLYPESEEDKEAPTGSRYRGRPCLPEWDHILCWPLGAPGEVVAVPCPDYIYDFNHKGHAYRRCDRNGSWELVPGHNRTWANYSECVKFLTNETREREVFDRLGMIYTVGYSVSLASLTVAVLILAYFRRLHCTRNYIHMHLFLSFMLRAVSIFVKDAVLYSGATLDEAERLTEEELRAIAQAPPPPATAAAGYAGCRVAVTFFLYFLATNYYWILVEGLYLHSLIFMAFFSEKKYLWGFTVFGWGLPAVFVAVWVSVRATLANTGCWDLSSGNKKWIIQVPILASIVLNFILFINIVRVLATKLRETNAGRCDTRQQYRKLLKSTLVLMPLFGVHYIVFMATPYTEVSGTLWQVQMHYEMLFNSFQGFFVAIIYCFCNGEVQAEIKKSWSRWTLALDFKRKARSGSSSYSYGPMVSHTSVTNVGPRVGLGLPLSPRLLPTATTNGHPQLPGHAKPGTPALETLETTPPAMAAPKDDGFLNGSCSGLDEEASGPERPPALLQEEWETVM
The class given is binding. The conditions noted are these: HEK293.

Test [2] addresses T2, nLuc-ΔECD-PTHR1 (Homo sapiens, UniProt Q03431).
T2 sequence (Q03431 182-593 limits assumed): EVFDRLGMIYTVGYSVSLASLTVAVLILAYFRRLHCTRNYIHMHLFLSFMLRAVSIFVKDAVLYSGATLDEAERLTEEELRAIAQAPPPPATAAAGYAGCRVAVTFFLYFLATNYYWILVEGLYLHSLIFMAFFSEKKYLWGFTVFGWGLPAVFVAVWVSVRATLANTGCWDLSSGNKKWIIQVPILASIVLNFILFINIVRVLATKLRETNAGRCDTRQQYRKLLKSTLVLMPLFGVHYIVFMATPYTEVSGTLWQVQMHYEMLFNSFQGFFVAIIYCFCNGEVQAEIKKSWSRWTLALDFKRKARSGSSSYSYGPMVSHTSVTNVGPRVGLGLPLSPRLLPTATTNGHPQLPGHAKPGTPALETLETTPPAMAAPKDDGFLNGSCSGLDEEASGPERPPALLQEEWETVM
The test is described as follows: NanoBRET direct binding on truncated receptor lacking the extracellular domain. (In general: BRET reads energy transfer from a luciferase to a nearby fluorophore.)

Test [3] deals with T3, WT-PTHR1 (Homo sapiens, UniProt Q03431).
T3 sequence (Q03431 27-593): T1 sequence (Q03431 27-593)
Nature of the test: GloSensor cAMP assay in GP2.3 cells. The class given is cell-based. The conditions noted are these: HEK293, read-out: cAMP formation %Emax. Background: Cyclic AMP is a second messenger, typically raised through Gs and lowered through Gi signalling.

For test [4], the target named is T1, nLuc-PTHR1. Nature of the test: NanoBRET equilibrium competition binding with tracer PTH. The conditions noted are these: ABL up to 1 μM.

Non-standard residues stand in square brackets, D forms with d. Residues, ends and D or L forms follow the SMILES beside them. *: point of attachment. X1 = CN(C)c1ccc2c(-c3cc(C(=O)*)ccc3C(=O)[O-])c3ccc(=[N+](C)C)cc-3oc2c1; hArg = N=C(N)NCCCC[C@H](N)C(=O)O; Aib = CC(C)(N)C(=O)O

Consider `CC[C@H](C)[C@H](NC(=O)[C@H](CC(C)C)NC(=O)[C@H](CCCCN)NC(=O)[C@H](Cc1c[nH]cn1)NC(=O)[C@H](CC(C)C)NC(=O)[C@H](Cc1ccccc1)NC(=O)[C@H](C)NC(=O)[C@H](CCCNC(=N)N)NC(=O)[C@H](CCCNC(=N)N)NC(=O)[C@H](CCCNC(=N)N)NC(=O)[C@H](C)NC(=O)[C@H](CC(=O)O)NC(=O)[C@H](CCC(N)=O)NC(=O)[C@@H](NC(=O)[C@H](Cc1c[nH]c2ccccc12)NC(=O)[C@H](CCCCN)NC(=O)[C@H](C)NC(=O)[C@H](CCCNC(=N)N)NC(=O)[C@H](CCC(N)=O)NC(=O)[C@H](Cc1c[nH]cn1)NC(=O)[C@H](CCSC)NC(=O)[C@H](CC(C)C)NC(=O)[C@H](CCC(N)=O)NC(=O)[C@@H](NC(=O)[C@H](CCC(=O)O)NC(=O)[C@H](C)NC(=O)[C@@H](NC(=O)[C@H](C)N)C(C)C)[C@@H](C)CC)[C@@H](C)CC)C(=O)N[C@@H](C)C(=O)N[C@@H](CCC(=O)O)C(=O)N[C@H](C(=O)N[C@@H](Cc1c[nH]cn1)C(=O)N[C@H](C(=O)N[C@@H](C)C(=O)N[C@@H](CCCCNC(=O)c1ccc(C(=O)[O-])c(-c2c3ccc(=[N+](C)C)cc-3oc3cc(N(C)C)ccc23)c1)C(N)=O)[C@@H](C)O)[C@@H](C)CC` [LA-PTH(1-34)-35K^TMR] (H-AVAEIQLMHQRAKWIQDARRRAFLHKLIAEIHTAK(X1)-NH2; N-terminus assumed), for which the results for the koff in test [1] and in test [2] were 0.00056 ± 0.0002 s⁻¹ and 0.0097 ± 0.003 s⁻¹, respectively. Further, the figures for the kon in test [1] and in test [2] were 230000 ± 40000 M⁻¹ s⁻¹ and 130000 ± 10000 M⁻¹ s⁻¹, respectively.

For `CC[C@H](C)[C@H](NC(=O)[C@H](CCC(=O)O)NC(=O)C(C)(C)NC(=O)[C@@H](NC(=O)C(C)(C)N)C(C)C)C(=O)N[C@@H](CCC(N)=O)C(=O)N[C@@H](CC(C)C)C(=O)N[C@@H](CCSC)C(=O)N[C@@H](Cc1c[nH]cn1)C(=O)N[C@@H](CCC(N)=O)C(=O)N[C@@H](CCCCNC(=N)N)C(=O)N[C@@H](C)C(=O)N[C@@H](CCCCN)C(=O)N[C@@H](Cc1c[nH]c2ccccc12)C(=O)N[C@@H](CCCCNC(=O)c1ccc(C(=O)[O-])c(-c2c3ccc(=[N+](C)C)cc-3oc3cc(N(C)C)ccc23)c1)C(N)=O` [M-PTH(1-14)-15K^TMR] (H-[Aib]V[Aib]EIQLMHQ[hArg]AKWK(X1)-NH2; N-terminus assumed), the koff in test [1] came out at 0.024 ± 0.001 s⁻¹; in test [2], 0.018 ± 0.003 s⁻¹. The kon in test [1] worked out at 77000 ± 20000 M⁻¹ s⁻¹; in test [2] it was 180000 ± 50000 M⁻¹ s⁻¹.

Take `CC[C@H](C)[C@H](NC(=O)[C@H](CCCCNC(=O)c1ccc(C(=O)[O-])c(-c2c3ccc(=[N+](C)C)cc-3oc3cc(N(C)C)ccc23)c1)NC(=O)[C@H](C)NC(=O)[C@@H](NC(=O)[C@H](Cc1c[nH]cn1)NC(=O)[C@@H](NC(=O)[C@H](CCC(=O)O)NC(=O)[C@H](C)NC(=O)[C@@H](NC(=O)[C@H](CC(C)C)NC(=O)[C@H](Cc1c[nH]cn1)NC(=O)[C@H](Cc1c[nH]cn1)NC(=O)[C@H](CC(C)C)NC(=O)[C@H](Cc1ccccc1)NC(=O)[C@H](Cc1ccccc1)NC(=O)[C@H](CCCNC(=N)N)NC(=O)[C@H](CCCNC(=N)N)NC(=O)[C@H](CCCNC(=N)N)NC(=O)[C@H](CC(C)C)NC(=O)[C@H](CC(=O)O)NC(=O)[C@H](CC(N)=O)NC(=O)[C@H](CC(C)C)NC(=O)[C@H](Cc1c[nH]cn1)NC(=O)[C@H](CCCCN)NC(=O)CNC(=O)[C@H](CC(C)C)NC(=O)[C@H](CC(N)=O)NC(=O)[C@H](Cc1c[nH]cn1)NC(=O)[C@H](CCSC)NC(=O)[C@H](CC(C)C)NC(=O)[C@H](CCC(N)=O)NC(=O)[C@@H](NC(=O)[C@H](CCC(=O)O)NC(=O)[C@H](CO)NC(=O)[C@@H](NC(=O)[C@@H](N)CO)C(C)C)[C@@H](C)CC)[C@@H](C)CC)[C@@H](C)CC)[C@@H](C)O)C(N)=O` [PTH[1-16] PTHrP[17-36]] (H-SVSEIQLMHNLGKHLNDLRRRFFLHHLIAEIHTAK(X1)I-NH2; N-terminus assumed): in test [1], the koff turned out to be 0.0017 ± 0.001 s⁻¹ and the kon was 530000 ± 30000 M⁻¹ s⁻¹. Besides, the Emax in test [3] came out at 103 ± 4%.

In the case of `CC[C@H](C)[C@H](NC(=O)[C@H](CCCCNC(=O)c1ccc(C(=O)[O-])c(-c2c3ccc(=[N+](C)C)cc-3oc3cc(N(C)C)ccc23)c1)NC(=O)[C@H](C)NC(=O)[C@@H](NC(=O)[C@H](Cc1c[nH]cn1)NC(=O)[C@@H](NC(=O)[C@H](CCC(=O)O)NC(=O)[C@H](C)NC(=O)[C@@H](NC(=O)[C@H](CC(C)C)NC(=O)[C@H](Cc1c[nH]cn1)NC(=O)[C@H](Cc1c[nH]cn1)NC(=O)[C@H](CC(C)C)NC(=O)[C@H](Cc1ccccc1)NC(=O)[C@H](Cc1ccccc1)NC(=O)[C@H](CCCNC(=N)N)NC(=O)[C@H](CCCNC(=N)N)NC(=O)[C@H](CCCNC(=N)N)NC(=O)[C@H](CCSC)NC(=O)[C@H](CO)NC(=O)[C@H](CC(N)=O)NC(=O)[C@H](CC(C)C)NC(=O)[C@H](Cc1c[nH]cn1)NC(=O)[C@H](CCCCN)NC(=O)CNC(=O)[C@H](CC(C)C)NC(=O)[C@H](CC(N)=O)NC(=O)[C@H](Cc1c[nH]cn1)NC(=O)[C@H](CCSC)NC(=O)[C@H](CC(C)C)NC(=O)[C@H](CCC(N)=O)NC(=O)[C@@H](NC(=O)[C@H](CCC(=O)O)NC(=O)[C@H](CO)NC(=O)[C@@H](NC(=O)[C@@H](N)CO)C(C)C)[C@@H](C)CC)[C@@H](C)CC)[C@@H](C)CC)[C@@H](C)O)C(N)=O` [PTH[1-18] PTHrP[19-36]] (H-SVSEIQLMHNLGKHLNSMRRRFFLHHLIAEIHTAK(X1)I-NH2; N-terminus assumed), in test [1], the koff was 0.0079 ± 0.001 s⁻¹ and the kon was determined as 320000 ± 70000 M⁻¹ s⁻¹. Further, the Emax in test [3] turned out to be 106 ± 1%.

Take “ABL: synthetic analogue of PTHrP(1-34) used clinically for osteoporosis”: in test [4], the “displacement of PTH(1-34)K35^TMR tracer (in words)” value is given as “failed to fully inhibit”.
